Measurements taken from ChEMBL document CHEMBL4813989, “Design, synthesis, and biological evaluation of nitroisoxazole-containing spiro[pyrrolidin-oxindole] derivatives as novel glutathione peroxidase 4/mouse double minute 2 dual inhibitors that inhibit breast adenocarcinoma cell proliferation” (Eur J Med Chem, 2021).
Activity calls are given as the source filed them. The rule behind the calls is not given here.

Legend:
MCF-10A = assay: Cytotoxicity against human MCF-10A cells assessed as reduction in cell viability incubated for 48 hrs by CCK8 assay; format: cell-based
MCF7 [1] = assay: Antiproliferative activity against human MCF7 cells assessed as reduction in cell growth incubated for 48 hrs by CCK8 assay; details: MCF7, 48 h
MCF7 [2] = assay: Antiproliferative activity against human MCF7 cells assessed as reduction in cell growth incubated for 48 hrs in presence of Fer-1 by CCK8 assay; details: MCF7, 48 h
[3] = molecular target: E3 ubiquitin-protein ligase Mdm2 (Homo sapiens, UniProt Q00987); assay: Inhibition of MDM2 (unknown origin) using peptide as substrate incubated for 30 mins by fluorescence polarization assay
[4] = molecular target: T1, Phospholipid hydroperoxide glutathione peroxidase GPX4 (Homo sapiens) (UniProt P36969); assay: Inhibition of GPX4 in human MCF7 cells assessed as increase in GPX4 degradation incubated for 48 hrs by Western blot analysis; format: cell-based; details: dose 0.1-2 µM
T1 sequence (whole entry): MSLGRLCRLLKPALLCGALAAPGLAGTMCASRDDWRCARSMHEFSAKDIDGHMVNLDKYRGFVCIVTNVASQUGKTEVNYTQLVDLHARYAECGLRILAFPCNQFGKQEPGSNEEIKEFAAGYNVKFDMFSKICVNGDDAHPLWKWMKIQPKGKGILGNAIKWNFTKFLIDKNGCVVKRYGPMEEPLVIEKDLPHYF

MCF7 [5] = assay: Induction of apoptosis in human MCF7 cells assessed as increase in cleaved caspase-9 level at 2 uM incubated for 48 hrs by Western blot analysis; format: functional, cell-based
MCF7 [6] = assay: Induction of apoptosis in human MCF7 cells at 0.1 to 1 uM incubated for 48 hrs by annexin-V-FITC and PI staining based flow cytometry analysis; format: functional, cell-based; details: dose 0.1-1 µM
MCF7 [7] = assay: Induction of apoptosis in human MCF7 cells at 0.1 to 1 uM incubated for 48 hrs in presence of Fer-1 by annexin-V-FITC and PI staining based flow cytometry analysis; format: functional, cell-based; details: dose 0.1-1 µM

Sequence of E3 ubiquitin-protein ligase Mdm2 (Q00987 whole entry): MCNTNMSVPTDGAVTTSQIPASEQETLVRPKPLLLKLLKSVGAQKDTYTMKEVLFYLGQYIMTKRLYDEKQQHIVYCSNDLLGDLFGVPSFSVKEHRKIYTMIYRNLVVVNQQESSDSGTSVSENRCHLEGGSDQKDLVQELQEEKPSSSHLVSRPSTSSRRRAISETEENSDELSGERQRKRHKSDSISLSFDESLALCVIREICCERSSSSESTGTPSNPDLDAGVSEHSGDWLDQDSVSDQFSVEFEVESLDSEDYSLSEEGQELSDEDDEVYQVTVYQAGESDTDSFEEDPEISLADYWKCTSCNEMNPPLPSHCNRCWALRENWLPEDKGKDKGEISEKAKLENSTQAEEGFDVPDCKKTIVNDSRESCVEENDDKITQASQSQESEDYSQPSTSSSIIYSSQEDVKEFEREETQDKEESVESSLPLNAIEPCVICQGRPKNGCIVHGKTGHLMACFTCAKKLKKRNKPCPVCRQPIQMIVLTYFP

Row | Compound | Activity (MCF-10A) | IC50 (MCF7 [1]) | IC50 (MCF7 [2]) | Ki [3] | inhibition [4] | Activity (MCF7 [5]) | Activity (MCF7 [6]) | Activity (MCF7 [7])
1 | Cc1noc([C@@H]2[C@@H](c3ccccc3)[C@H](C(F)(F)F)N[C@@]23C(=O)Nc2ccc([N+](=O)[O-])cc23)c1[N+](=O)[O-] | Non-Toxic | 4.75 µM | > 20 µM |  |  |  |  | 
2 | Cc1noc([C@@H]2[C@@H](c3cccc4ccccc34)[C@H](C(F)(F)F)N[C@@]23C(=O)Nc2ccccc23)c1[N+](=O)[O-] | Non-Toxic | 7.17 µM | > 20 µM |  |  |  |  | 
3 | CC(=O)N1C(=O)[C@@]2(N[C@@H](C(F)(F)F)[C@H](c3ccccc3)[C@H]2c2onc(C)c2[N+](=O)[O-])c2ccccc21 | Non-Toxic | 3.23 µM | > 20 µM | > 10 µM |  |  |  | 
4 | Cc1noc([C@@H]2[C@@H](c3ccc(Cl)cc3)[C@H](C(F)(F)F)N[C@@]23C(=O)Nc2ccccc23)c1[N+](=O)[O-] | Non-Toxic | 1.14 µM | > 20 µM |  |  |  |  | 
5 | Cc1noc([C@@H]2[C@@H](c3ccccc3)[C@H](C(F)(F)F)N[C@@]23C(=O)Nc2ccc(Br)cc23)c1[N+](=O)[O-] | Non-Toxic | 0.55 µM | 16.3 µM |  |  |  |  | 
6 | Cc1ccccc1[C@H]1[C@H](C(F)(F)F)N[C@@]2(C(=O)Nc3ccccc32)[C@@H]1c1onc(C)c1[N+](=O)[O-] | Non-Toxic | 3.5 µM | > 20 µM | > 10 µM |  |  |  | 
7 | Cc1noc([C@@H]2C(c3ccco3)[C@H](C(F)(F)F)N[C@@]23C(=O)Nc2ccccc23)c1[N+](=O)[O-] (single isomer, unassigned) | Non-Toxic | 1.46 µM | 14.3 µM |  |  |  |  | 
8 | Cc1noc([C@@H]2[C@@H](c3ccccc3)[C@H](C(F)(F)F)N[C@@]23C(=O)Nc2ccccc23)c1[N+](=O)[O-] | Non-Toxic | 0.38 µM | 17.6 µM |  |  |  |  | 
9 | Cc1noc([C@@H]2[C@@H](c3ccc(Br)cc3)[C@H](C(F)(F)F)N[C@@]23C(=O)Nc2ccccc23)c1[N+](=O)[O-] | Non-Toxic | 3.01 µM | 17 µM |  |  |  |  | 
10 | COc1ccccc1[C@H]1[C@H](C(F)(F)F)N[C@@]2(C(=O)Nc3ccccc32)[C@@H]1c1onc(C)c1[N+](=O)[O-] | Non-Toxic | 4.59 µM | > 20 µM | > 10 µM |  |  |  | 
11 | Cc1ccc([C@H]2[C@H](C(F)(F)F)N[C@@]3(C(=O)Nc4ccccc43)[C@@H]2c2onc(C)c2[N+](=O)[O-])cc1 | Non-Toxic | 2.81 µM | 18.8 µM |  |  |  |  | 
12 | Cc1noc([C@@H]2[C@@H](c3ccccc3Br)[C@H](C(F)(F)F)N[C@@]23C(=O)Nc2ccccc23)c1[N+](=O)[O-] | Non-Toxic | 4.71 µM | > 20 µM | > 10 µM |  |  |  | 
13 | Cc1noc([C@@H]2[C@@H](c3ccccc3)[C@H](C(F)(F)F)N[C@@]23C(=O)N(C)c2ccccc23)c1[N+](=O)[O-] | Non-Toxic | 3.52 µM | > 20 µM | > 10 µM |  |  |  | 
14 | Cc1noc([C@@H]2[C@@H](c3ccccc3)[C@H](C(F)(F)F)N[C@@]23C(=O)Nc2ccc(Cl)cc23)c1[N+](=O)[O-] | Non-Toxic | 0.37 µM | 19.8 µM |  |  |  |  | 
15 | Cc1noc([C@@H]2[C@@H](c3cccc(Br)c3)[C@H](C(F)(F)F)N[C@@]23C(=O)Nc2ccccc23)c1[N+](=O)[O-] | Non-Toxic | 2.31 µM | > 20 µM |  |  |  |  | 
16 | Cc1noc([C@@H]2[C@@H](c3ccc([N+](=O)[O-])cc3)[C@H](C(F)(F)F)N[C@@]23C(=O)Nc2ccccc23)c1[N+](=O)[O-] | Non-Toxic | 5.36 µM | > 20 µM |  |  |  |  | 

Row | Compound | Activity (MCF-10A) | IC50 (MCF7 [1]) | IC50 (MCF7 [2]) | Ki [3] | inhibition [4] | Activity (MCF7 [5]) | Activity (MCF7 [6]) | Activity (MCF7 [7])
17 | COc1ccc([C@H]2[C@H](C(F)(F)F)N[C@@]3(C(=O)Nc4ccccc43)[C@@H]2c2onc(C)c2[N+](=O)[O-])cc1OC | Non-Toxic | 4.13 µM | > 20 µM |  |  |  |  | 
18 | Cc1noc([C@@H]2[C@@H](c3ccccc3Cl)[C@H](C(F)(F)F)N[C@@]23C(=O)Nc2ccccc23)c1[N+](=O)[O-] | Non-Toxic | 3.77 µM | > 20 µM | > 10 µM |  |  |  | 
19 | C=CCN1C(=O)[C@@]2(N[C@@H](C(F)(F)F)[C@H](c3ccccc3)[C@H]2c2onc(C)c2[N+](=O)[O-])c2ccccc21 | Non-Toxic | 3.42 µM | > 20 µM | > 10 µM |  |  |  | 
20 | Cc1noc([C@@H]2[C@@H](c3ccc(Cl)c(Cl)c3)[C@H](C(F)(F)F)N[C@@]23C(=O)Nc2ccccc23)c1[N+](=O)[O-] | Non-Toxic | 3.22 µM | > 20 µM |  |  |  |  | 
21 | Cc1noc([C@@H]2[C@@H](c3ccc(F)cc3)[C@H](C(F)(F)F)N[C@@]23C(=O)Nc2ccccc23)c1[N+](=O)[O-] | Non-Toxic | 0.55 µM | 17.4 µM |  |  |  |  | 
22 | Cc1onc(C(=O)N2CCN(C(c3ccc(Cl)cc3)c3ccc(Cl)cc3)CC2)c1[N+](=O)[O-] |  | 0.076 µM | > 20 µM |  |  |  |  | 
23 | Cc1noc([C@@H]2[C@@H](c3ccc(C(C)C)cc3)[C@H](C(F)(F)F)N[C@@]23C(=O)Nc2ccccc23)c1[N+](=O)[O-] | Non-Toxic | 2.83 µM | > 20 µM |  |  |  |  | 
24 | Cc1noc([C@@H]2C(c3cccs3)[C@H](C(F)(F)F)N[C@@]23C(=O)Nc2ccccc23)c1[N+](=O)[O-] (single isomer, unassigned) | Non-Toxic | 1.53 µM | 19 µM |  |  |  |  | 
25 | Cc1noc([C@@H]2[C@@H](c3ccccc3)[C@H](c3ccccc3)N[C@@]23C(=O)Nc2ccccc23)c1[N+](=O)[O-] | Non-Toxic | 5.24 µM | > 20 µM |  |  |  |  | 
26 | Cc1ccc2c(c1)[C@]1(N[C@@H](C(F)(F)F)[C@H](c3ccccc3)[C@H]1c1onc(C)c1[N+](=O)[O-])C(=O)N2 | Non-Toxic | 4.91 µM | 18.1 µM |  |  |  |  | 
27 | COc1ccc(C2=NC(c3ccc(Cl)cc3)C(c3ccc(Cl)cc3)N2C(=O)N2CCNC(=O)C2)c(OC(C)C)c1 (stereo not drawn) |  | 14.6 µM | 15.7 µM |  | inactive | Active |  | 
28 | Cc1noc([C@@H]2[C@@H](c3ccccc3)[C@H](C(F)(F)F)N[C@@]23C(=O)Nc2cc(Br)ccc23)c1[N+](=O)[O-] | Non-Toxic | 0.17 µM | 13.7 µM |  |  |  | Active | Active
29 | Cc1noc([C@@H]2[C@@H](c3cc(Cl)ccc3Cl)[C@H](C(F)(F)F)N[C@@]23C(=O)Nc2ccccc23)c1[N+](=O)[O-] | Non-Toxic | 3.98 µM | > 20 µM | > 10 µM |  |  |  | 
30 | Cc1noc([C@@H]2[C@@H](c3ccccc3)[C@H](C(F)(F)F)N[C@@]23C(=O)Nc2ccc(F)cc23)c1[N+](=O)[O-] | Non-Toxic | 0.21 µM | 15.6 µM |  |  |  |  | 
31 | Cc1noc([C@@H]2[C@@H](c3cccc(F)c3)[C@H](C(F)(F)F)N[C@@]23C(=O)Nc2ccccc23)c1[N+](=O)[O-] | Non-Toxic | 0.87 µM | 15.6 µM |  |  |  |  | 
